Experimental data reported in patent US11365204B2, “Substituted dihydrothienopyrimidines and their use as phosphodiesterase inhibitors” (UNION therapeutics A/S, priority 2017, dated 2022).

Legend:
[1] = biological target: human PDE4D catalytic domain (UniProt no. Q08499 [S380-L740]) (Homo sapiens (Human), UniProt Q08499); experiment: PDE4 assay (TR-FRET, cAMP hydrolysis); assay type: biochemical; conditions: read-out: PDE4 IC50 range
Experimental: The human PDE4D catalytic domain (UniProt no. Q08499 [S380-L740]) was incubated with a mixture of non-labelled cAMP (cyclic adenosine monophosphate) and fluorescein amidite (FAM) conjugated cAMP and titrated test or reference compound.
Following brief incubation the enzymatic reaction was stopped by addition of binding buffer containing nanoparticles with immobilized trivalent metal ions capable of binding 1) AMP phospho groups and 2) terbium (Tb) donor fluorophores. Subsequent excitation of the Tb donor triggered time-resolved FRET to adjacent FAM acceptor molecules resulting in light emission. In the presence of a PDE4 inhibitor, AMP generation was reduced resulting in a lower fluorescence signal. The cAMP phosphodiester is not bound by the detection system.
Results were expressed as IC50 values (nM) calculated from inhibition curves where the TR-FRET signal was normalized to Tb fluorescence intensity and the negative (DMSO vehicle) and positive (10 microM a PDE4 inhibitor reference compound) controls.

[2] = system: Human peripheral blood mononuclear cells (PBMC); experiment: TNF-α release from LPS-stimulated PBMC; assay type: cell-based; conditions: Lipopolysaccharide 1 microg/ml, 18 hours, AlphaLISA, read-out: TNF-α IC50 range
Experimental: Human peripheral blood mononuclear cells (PBMC) were isolated from fresh buffy coats by density centrifugation using lymphoprep tubes (Medinor). Frozen PBMC's were washed in serum free assay buffer (RPMI1640 with 25 mM HEPES, 1% pen/strep, […] L glutamine, 0.5% human serum albumin) and living cells counted. Lipopolysaccharide (1 microg/ml; SIGMA) was added to the cells which were then transferred to 384 well tissue culture plates ([…]) containing titrated test compounds. The cells were incubated for 18 hours at 37° C. in serum free assay buffer and the level of TNFalpha in the supernatant was quantitated by AlphaLISA (PerkinElmer) by measuring fluorescence intensity at 615 nm.
Results were expressed as IC50 values calculated from inhibition curves using as controls the secretion in LPS stimulated wells and the secretion in cells incubated with 10 microM of a PDE4 inhibitor reference compound.

Sequence of human PDE4D catalytic domain (Q08499 380-740): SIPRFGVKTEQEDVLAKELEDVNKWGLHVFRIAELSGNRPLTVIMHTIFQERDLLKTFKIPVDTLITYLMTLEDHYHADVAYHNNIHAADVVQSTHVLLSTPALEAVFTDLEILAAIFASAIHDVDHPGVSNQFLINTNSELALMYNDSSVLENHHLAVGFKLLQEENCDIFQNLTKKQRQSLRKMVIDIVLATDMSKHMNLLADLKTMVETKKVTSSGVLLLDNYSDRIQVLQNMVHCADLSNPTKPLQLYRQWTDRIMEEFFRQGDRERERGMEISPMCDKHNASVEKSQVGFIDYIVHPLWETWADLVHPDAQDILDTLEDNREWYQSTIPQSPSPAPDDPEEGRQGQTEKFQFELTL

Compound | IC50 [1] [nM] | IC50 [2] [nM]
CCc1nc(C(=O)OC2CN(c3nc4c(c(N(C)C5CCOCC5)n3)[S+](O)CC4)C2)cs1 (stereo not drawn) [Example 46, [1-[4-[methyl(tetra-hydropyran-4-yl)amino]-5-oxido-6,7-dihydro-thieno[3,2-d]pyrimidin-5-ium-2-yl]azetidin-3-yl] 2-ethylthiazole-4-carboxylate] | < 100 | < 100
Cc1ncc(C(=O)OC2CN(c3nc4c(c(N(C)C5CCOCC5)n3)[S+]([O-])CC4)C2)o1 (stereo not drawn) [Example 21, [1-[4-[methyl(tetra-hydropyran-4-yl)amino]-5-oxido-6,7-dihydro-thieno[3,2-d]pyrimidin-5-ium-2-yl]azetidin-3-yl] 2-methyloxazole-5-carboxylate] | < 100 | < 100
COc1cccc(C(=O)OC2CN(c3nc4c(c(N(C)C5CCOCC5)n3)[S+](O)CC4)C2)c1 (stereo not drawn) [Example 43, [1-[4-[methyl(tetra-hydropyran-4-yl)amino]-5-oxido-6,7-dihydro-thieno[3,2-d]pyrimidin-5-ium-2-yl]azetidin-3-yl] 3-methoxybenzoate] | < 100 | < 100
O=C(OC1CN(c2nc3c(c(NC4CC5(COC5)C4)n2)[S@+]([O-])CC3)C1)c1cscn1 (single isomer, unassigned) [Example 71] | 100 to 500 | > 500
COc1ccc(C(=O)OC2CN(c3nc4c(c(N(C)C5CCOCC5)n3)[S+]([O-])CC4)C2)cc1 (stereo not drawn) [Example 42, [1-[4-[methyl(tetra-hydropyran-4-yl)amino]-5-oxido-6,7-dihydro-thieno[3,2-d]pyrimidin-5-ium-2-yl]azetidin-3-yl] 4-methoxybenzoate] | < 100 | < 100
CNS(=O)(=O)c1ccc(C(=O)OC2CN(c3nc4c(c(N(C)C5CCOCC5)n3)[S+]([O-])CC4)C2)cc1 (stereo not drawn) [Example 58, [1-[4-[methyl(tetra-hydropyran-4-yl)amino]-5-oxido-6,7-dihydro-thieno[3,2-d]pyrimidin-5-ium-2-yl]azetidin-3-yl] 4-(methylsulfamoyl)-benzoate] | < 100 | < 100
CN(c1nc(N2CC(OC(=O)c3ccc(S(=O)(=O)C4CCCC4)cc3)C2)nc2c1[S+]([O-])CC2)C1CCOCC1 (stereo not drawn) [Example 62, [1-[4-[methyl(tetra-hydropyran-4-yl)amino]-5-oxido-6,7-dihydro-thieno[3,2-d]pyrimidin-5-ium-2-yl]azetidin-3-yl] 4-cyclopentylsulfonyl-benzoate] | < 100 | < 100
CN(C)C(=O)c1ccc(C(=O)OC2CN(c3nc4c(c(N(C)C5CCOCC5)n3)[S+](O)CC4)C2)cc1 (stereo not drawn) [Example 53, [1-[4-[methyl(tetra-hydropyran-4-yl)amino]-5-oxido-6,7-dihydro-thieno[3,2-d]pyrimidin-5-ium-2-yl]azetidin-3-yl] 4-(dimethylcarbamoyl)-benzoate] | < 100 | < 100
CN(c1nc(N2CC(OC(=O)c3cscn3)C2)nc2c1[S+]([O-])CC2)C1CCOCC1 (stereo not drawn) [Example 5, [1-[4-[Methyl(tetrahydropyran-4-yl)amino]-5-oxido-6,7-dihydrothieno[3,2-d]pyrimidin-5-ium-2-yl]azetidin-3-yl] thiazole-4-carboxylate] | < 100 | < 100
CN(c1nc(N2CC(OC(=O)C3CCSCC3)C2)nc2c1[S+](O)CC2)C1CCOCC1 (stereo not drawn) [Example 40, [1-[4-[methyl(tetra-hydropyran-4-yl)amino]-5-oxido-6,7-dihydro-thieno[3,2-d]pyrimidin-5-ium-2-yl]azetidin-3-yl] tetrahydrothiopyran-4-carboxylate] | < 100 | < 100
CN(c1nc(N2CC(OC(=O)c3cccnc3)C2)nc2c1[S@+](O)CC2)C1CCOCC1 [Example 63, [1-[(5R)-4-[methyl-(tetrahydropyran-4-yl)amino]-5-oxido-6,7-dihydrothieno[3,2-d]pyrimidin-5-ium-2-yl]azetidin-3-yl] pyridine-3-carboxylate] | 100 to 500 | < 100
O=C(OC1CN(c2nc3c(c(NC4CCOCC4)n2)[S@@+]([O-])CC3)C1)C1CCCC1 [Example 11, [1-[(5R)-5-oxido-4-(tetrahydropyran-4-ylamino)-6,7-dihydro-thieno[3,2-d]pyrimidin-5-ium-2-yl]azetidin-3-yl] cyclopentanecarboxylate] | < 100 | < 100
Cc1ccccc1C(=O)OC1CN(c2nc3c(c(N(C)C4CCOCC4)n2)[S+]([O-])CC3)C1 (stereo not drawn) [Example 24, [1-[4-[methyl(tetra-hydropyran-4-yl)amino]-5-oxido-6,7-dihydro-thieno[3,2-d]pyrimidin-5-ium-2-yl]azetidin-3-yl] 2-methylbenzoate] | < 100 | < 100
CN(c1nc(N2CC(OC(=O)c3ccc(F)cc3)C2)nc2c1[S+]([O-])CC2)C1CCOCC1 (stereo not drawn) [Example 28, [1-[4-[methyl(tetra-hydropyran-4-yl)amino]-5-oxido-6,7-dihydro-thieno[3,2-d]pyrimidin-5-ium-2-yl]azetidin-3-yl] 4-fluorobenzoate] | < 100 | < 100
CCN(c1nc(N2CC(OC(=O)c3cscn3)C2)nc2c1[S+]([O-])CC2)C1CCOCC1 (stereo not drawn) [Example 8, [1-[4-[Ethyl(tetrahydropyran-4-yl)amino]-5-oxido-6,7-dihydrothieno[3,2-d]pyrimidin-5-ium-2-yl]azetidin-3-yl] thiazole-4-carboxylate] | 100 to 500 | 100 to 500
CCCN(c1nc(N2CC(OC(=O)c3cnsc3)C2)nc2c1[S+]([O-])CC2)C1CCOCC1 (stereo not drawn) [Example 9, [1-[4-[Propyl(tetrahydropyran-4-yl)amino]-5-oxido-6,7-dihydrothieno[3,2-d]pyrimidin-5-ium-2-yl]azetidin-3-yl] isothiazole-4-carboxylate] | > 500 | > 500
Cc1ncc(C(=O)OC2CN(c3nc4c(c(N(C)C5CCOCC5)n3)[S+]([O-])CC4)C2)s1 (stereo not drawn) [Example 36, [1-[4-[methyl(tetra-hydropyran-4-yl)amino]-5-oxido-6,7-dihydro-thieno[3,2-d]pyrimidin-5-ium-2-yl]azetidin-3-yl] 2-methylthiazole-5-carboxylate] | < 100 | < 100
CN(c1nc(N2CC(OC(=O)[C@H]3CC[C@@H](O)CC3)C2)nc2c1[S+](O)CC2)C1CCOCC1 (stereo partly drawn) [Example 37, [1-[4-[methyl(tetra-hydropyran-4-yl)amino]-5-oxido-6,7-dihydro-thieno[3,2-d]pyrimidin-5-ium-2-yl]azetidin-3-yl] 4-hydroxycyclohexane-carboxylate] | < 100 | < 100
CNC(=O)c1ccc(C(=O)OC2CN(c3nc4c(c(N(C)C5CCOCC5)n3)[S+](O)CC4)C2)cc1 (stereo not drawn) [Example 51, [1-[4-[methyl(tetra-hydropyran-4-yl)amino]-5-oxido-6,7-dihydro-thieno[3,2-d]pyrimidin-5-ium-2-yl]azetidin-3-yl] 4-(methylcarbamoyl)-benzoate] | < 100 | < 100
Cc1ccc(C(=O)OC2CN(c3nc4c(c(N(C)C5CCOCC5)n3)[S+]([O-])CC4)C2)cc1 (stereo not drawn) [Example 26, [1-[4-[methyl(tetra-hydropyran-4-yl)amino]-5-oxido-6,7-dihydro-thieno[3,2-d]pyrimidin-5-ium-2-yl]azetidin-3-yl] 4-methylbenzoate] | < 100 | < 100
CC(=O)N1CCC(Nc2nc(N3CC(OC(=O)C4CCOCC4)C3)nc3c2[S+](O)CC3)CC1 (stereo not drawn) [Example 77, [1-[4-[(1-acetyl-4-piperidyl)amino]-5-oxido-6,7-dihydrothieno[3,2-d]pyrimidin-5-ium-2-yl]azetidin-3-yl] tetra-hydropyran-4-carboxylate] | 100 to 500 | 100 to 500
CC(=O)N1CCC(Nc2nc(N3CC(OC(=O)c4cscn4)C3)nc3c2[S+](O)CC3)CC1 (stereo not drawn) [Example 76, [1-[4-[(1-acetyl-4-piperidyl)amino]-5-oxido-6,7-dihydrothieno[3,2-d]pyrimidin-5-ium-2-yl]-azetidin-3-yl] thiazole-4-carboxylate] | 100 to 500 | > 500
CN(c1nc(N2CC(OC(=O)c3ccc(C(=O)N4CCOCC4)cc3)C2)nc2c1[S+](O)CC2)C1CCOCC1 (stereo not drawn) [Example 61, [1-[4-[methyl(tetra-hydropyran-4-yl)amino]-5-oxido-6,7-dihydro-thieno[3,2-d]pyrimidin-5-ium-2-yl]azetidin-3-yl] 4-(morpholine-4-carbonyl)benzoate] | < 100 | < 100
CSCCC(=O)OC1CN(c2nc3c(c(N(C)C4CCOCC4)n2)[S+]([O-])CC3)C1 (stereo not drawn) [Example 15, [1-[4-[methyl(tetra-hydropyran-4-yl)amino]-5-oxido-6,7-dihydro-thieno[3,2-d]pyrimidin-5-ium-2-yl]azetidin-3-yl] 3-methylsulfanyl-propanoate] | < 100 | < 100
